Measured values taken from US20250186323A1, “COMPOSITION FOR SKIN WHITENING COMPRISING CARVEDILOL” (GMEX (GLOBAL MEDICAL XYNAPSE), priority 2020, published 2025).

Columns and labels:
MITF = MITF mRNA expression in NHMs; assay type: cell-based, human
[1] = test system: mouse melanocytes (mel-ab); assay: Cell growth rate in mouse melanocytes (mel-ab); assay type: cell-based; conditions: up to 8 μM carvedilol (FIG. 2A)
Excerpt: (§1) In addition to the result of Example 1 showing whitening activity in NHMs, the melanin inhibitory effect was confirmed by treating mouse melanocytes (mel-ab) with carvedilol.

[2] = test system: ex-vivo model of human skin tissue; assay: Ex-vivo human skin tissue model stimulated by UV irradiation
Excerpt: To examine adaptation in actual clinical practice, an ex-vivo model of human skin tissue was stimulated by UV irradiation to induce melanin synthesis, and treated with carvedilol and cultured, and then a fragment was formed and subjected to Fontana-Masson staining.

[3] = test system: mouse melanocytes (mel-ab); assay: Melanin production in mouse melanocytes (mel-ab); assay type: cell-based; conditions: carvedilol by concentration (FIG. 2B)
Excerpt: as §1

[4] = test system: cAMP/PKA/CREB signaling pathway; assay: Phospho-CREB and phospho-ERK expression in FSK-stimulated NHMs; assay type: cell-based, human; conditions: over time (FIG. 1D)
Procedure: After NHMs were stimulated with FSK and treated with carvedilol, the expression levels of phospho-CREB and phospho-ERK were measured, and an intracellular signaling pathway which regulates MITF transcription was investigated.

tyrosinase = assay: Tyrosinase activity in NHMs; assay type: cell-based, human; conditions: carvedilol 2-10 μM, 5 days (FIG. 1C)
Procedure: (§2) NHMs were treated with carvedilol at each concentration of 2 μM, 4 μM, 6 μM, 8 μM and 10 μM, cultured for 5 days, and then a cell growth rate, melanogenesis activity, tyrosinase activity, and the expression of a melanin synthesis-related protein were confirmed.

[5] = test system: normal human melanocytes (NHMs); assay: Melanin production (melanogenesis activity) in NHMs; assay type: cell-based; conditions: carvedilol 2-10 μM, 5 days (FIG. 1B)
Procedure: as §2

FSK-stimulated NHMs = assay: Melanin production in FSK-stimulated NHMs; assay type: cell-based, human; conditions: NHMs after FSK treatment (FIG. 3A)
[6] = test system: melanin synthesis-related protein; assay: Expression of melanin synthesis-related protein in NHMs; assay type: cell-based, human; conditions: according to carvedilol treatment time (FIG. 1D)
Excerpt: […], and then a cell growth rate, melanogenesis activity, tyrosinase activity, and the expression of a melanin synthesis-related protein were confirmed.

[7] = test system: normal human melanocytes (NHMs); assay: Cell growth rate in normal human melanocytes treated with carvedilol; assay type: cell-based; conditions: cultured for 5 days (FIG. 1A)
Procedure: as §2

Structure (SMILES) | MITF transcription (MITF; 10 μM FSK for 2 hours (FIG. 3B)) | cell growth rate [1] | melanosome level (Fontana-Masson staining) ([2]; UV-irradiated ex-vivo human skin, carvedilol treated (FIG. 4A)) | melanin index (proportion of Fontana-Masson-stained region) ([2]; UV-irradiated ex-vivo human skin, carvedilol treated (FIG. 4B)) | melanin synthesis-related enzymes such as tyrosinase, TRP1 and DCT ([2]; UV-irradiated ex-vivo human skin, increased by UVR (FIG. 4C)) | number of Melan-A (+) cells (melanocytes) ([2]; ex-vivo human skin, compared to UVR alone (FIG. 4D)) | HMB45(+) melanocytes indicating melanocyte activity ([2]; ex-vivo human skin, increased by UVR treatment (FIG. 4E)) | melanin production [3] | phospho-CREB expression [4] | phospho-ERK expression [4] | tyrosinase activity (tyrosinase) | melanin production [5] | melanin production (FSK-stimulated NHMs) | mRNA level of MITF (MITF; two hours after carvedilol treatment (FIG. 3C)) | expression of a melanin synthesis-related protein [6] | cell growth rate ([7]; 10 μM carvedilol) | cell growth rate ([7]; up to 8 μM carvedilol)
C=C[C@@]1(C)CC(=O)[C@]2(O)[C@@]3(C)[C@@H](O)CCC(C)(C)[C@@H]3[C@H](O)[C@H](OC(C)=O)[C@@]2(C)O1 [FSK] | maximally increased | – | – | – | – | – | – | – | – | – | – | – | – | – | – | – | –
COc1ccccc1OCCNCC(O)COc1cccc2[nH]c3ccccc3c12 (centres unmarked) [carvedilol] | – | no effect | melanosome reduction | decrease | reduced | does not affect | reduced | effect of inhibiting melanin production | reduced over time | no change | inhibited | inhibited | inhibits melanin production | maximally decreased | tends to decrease over time | slightly reduced | no effect
